Assay results taken from patent US10689394B2, “Thieno[2,3-b]pyridine derivative, quinoline derivative, and use thereof” (The University of Tokyo, priority 2016, dated 2020).

What follows are compounds tested against T1, binding between ALS-related mutant SOD1 (Flag-SOD1 G93A) and Derlin-1 (Derlin-1-HA) (Homo sapiens, UniProt P00441+Q9BUN8, G94A) (assay: Cell-based co-immunoprecipitation assay of mutant SOD1 (G93A)-Derlin-1 binding). Conditions: 0.625 μM, 1.25 μM, 2.5 μM and 5 μM added to HEK293A cell culture; FIG. 1.
T1 construct: expressed in transfected cells; host or cells: HEK293A
T1 sequence (P00441 whole entry G94A, species assumed): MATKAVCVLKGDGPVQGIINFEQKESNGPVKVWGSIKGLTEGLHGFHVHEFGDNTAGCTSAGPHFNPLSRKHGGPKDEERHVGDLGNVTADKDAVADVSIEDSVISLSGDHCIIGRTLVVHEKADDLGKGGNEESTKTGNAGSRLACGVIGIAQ
T1 sequence (Q9BUN8 whole entry, species assumed, stated change not applied): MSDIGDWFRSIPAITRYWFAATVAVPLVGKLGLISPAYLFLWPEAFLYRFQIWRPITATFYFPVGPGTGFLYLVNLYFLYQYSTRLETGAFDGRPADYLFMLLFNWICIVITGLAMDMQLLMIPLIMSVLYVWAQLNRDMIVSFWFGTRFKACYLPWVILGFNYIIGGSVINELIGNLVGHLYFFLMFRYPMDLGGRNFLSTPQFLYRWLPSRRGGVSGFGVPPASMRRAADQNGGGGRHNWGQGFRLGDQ
Set-up: key to Activity value (score): a compound exhibiting no inhibitory activity is set at 0; a compound exhibiting inhibitory activity is set at 1; a compound exhibiting significant inhibitory activity is set at 2; a compound having higher inhibitory activity than the compound of Example 1 is set at 3
Method: As cells, human embryonic kidney-derived, Human Embryonic Kidney 293A (HEK293A) cells were used. The cells were cultured in High Glucose Dulbecco's modified Eagle's medium (DMEM: 4.5 mg/ml glucose, Sigma) supplemented with complement-inactivated 10% fetal bovine serum (FBS, Vitromex) and 100 units/mL Penicillin G (Meiji), which was placed in an incubator set at conditions of 37° C. and 5% CO2.
Transfection into the HEK293A cells was carried out using PEI-Max (Polyscience) at a ratio of 3 μL of PEI-Max to 1 μg of plasmid. DMEM was mixed with PEI-Max, and the mixture was then left at rest for 5 minutes. Thereafter, the reaction mixture was added to the plasmid DNA dissolved in DMEM, and the thus obtained mixture was further left at rest for 15 minutes. After seeding, the culture was carried out for 12 to 24 hours, and the resultant was then added to a culture medium of cells, in which the medium had been exchanged with DMEM supplemented only with 10% FBS.
pcDNA3.0-Derlin-1-HA, pcDNA3.0-Flag-SOD1 G93A, and 123 types of other mutants.
In the lysis of HEK293A cells for use in a co-immunoprecipitation experiment, an IP lysis buffer (20 mM Tris-HCl (pH 7.5), 150 mM NaCl, 10 mM EDTA (pH 8.0), 1% Triton-X 100, 5 μg/mL leupeptin, and 1 mM phenylmethylsulfonyl fluoride) was used.
After the transfection on a 24-well plate, the cells were cultured for 12 hours or 24 hours, and the obtained cell culture was exchanged with 200 μL of medium. Thereafter, 1% DMSO or various types of compounds having each different concentration were added into the culture. Thirty-six hours or twenty-four hours later, the cells were incubated in the IP lysis buffer (300 μL/well) at 4° C. for 25 minutes, so that the cells were lysed. The cell lysate was centrifuged at 4° C. at 15000 rpm for 10 minutes, and a supernatant was then recovered. To this supernatant, Anti-Flag M2 affinity gel was added in a liquid amount of 20 μL, and they were allowed to react with each other by subjecting the obtained mixture to inversion mixing at 4° C. for 25 minutes. After completion of the reaction, a supernatant was removed, and the residue was washed twice with High salt wash buffer (1% Triton X 100, 500 mM NaCl, 20 mM Tris-HCl (pH 7.5), and 5 mM EGTA), and was then washed once with Low salt wash buffer (150 mM NaCl, 20 mM Tris-HCl (pH 7.5), and 5 mM EGTA). Finally, 50 μL of a 2×SDS sample buffer was added to the resultant, and the obtained mixture was then boiled at 98° C. for 3 minutes to obtain an SDS-PAGE sample. Regarding the lysate, a 2×SDS sample buffer was added in an amount equal to the supernatant, and the obtained mixture was then boiled at 98° C. for 3 minutes to obtain an SDS-PAGE sample.
After completion of SDS-PAGE, a protein was transferred from the gel into a polyvinylidene difluoride membrane (PVDF) ([…], Pall), and was then blocked with TBS-T (150 mM NaCl, 50 mM Tris-HCl (pH 8.0), and 0.05% Tween 20) supplemented with 5% skimmed milk at room temperature for 2 hours or more. Thereafter, a primary antibody diluted with TBS-T supplemented with 5% bovine serum albumin and 0.1% NaN3 was allowed to bind to each molecule on the PVDF membrane at 4° C. for 12 hours or more. After completion of the reaction, a secondary antibody (HRP-linked 2nd antibody) diluted with TBS-T supplemented with 5% skimmed milk was allowed to bind to the primary antibody at room temperature for 1 hour. Thereafter, the resultant was washed with TBS-T for 15 minutes, 3 or more times, and detection was then carried out using an enhanced chemiluminescence (ECL) system.
With regard to the compounds of the present invention (Example Compound 1 to Example Compound 47), whether or not the present compound can inhibit the binding between ALS-related mutant SOD1 and Derlin-1 in a cell by being added into a cell culture solution was examined according to a co-immunoprecipitation experiment. […]

`Nc1c(C(=O)Nc2ccncc2)sc2nc(-c3cccnc3)ccc12` [Example 4, 3-amino-N-(4-pyridinyl)-6-(3-pyridinyl)thieno[2,3-b]pyridine-2-carboxamide] was tested, and the “binding between mutant SOD1 and Derlin-1 (co-precipitated Derlin-1, IB:HA band)” value was “the binding between mutant SOD1 and Derlin-1 was inhibited”.

Same assay, conditions: assay concentration 2.6 μM; HEK293A cells overexpressing Flag-SOD1 G93A and Derlin-1-HA

`Nc1c(C(=O)Nc2ccncc2)sc2nc(-c3ccccn3)ccc12` [Example 6, 3-amino-N-(4-pyridinyl)-6-(2-pyridinyl)thieno[2,3-b]pyridine-2-carboxamide] and `Nc1c(C(=O)Nc2ccc(-c3cc(C(F)(F)F)cc(C(F)(F)F)c3)cc2)sc2nc(-c3ccncc3)ccc12` [Example 7] are the same in “Activity value (score)” value: 1 for the first, 1 for the second.

Same assay, conditions: assay concentration 5 μM; HEK293A cells overexpressing Flag-SOD1 G93A and Derlin-1-HA

First: Nc1c(C(=O)Nc2ccncc2)sc2nc(-c3cccnc3)ccc12 [Example 4, 3-amino-N-(4-pyridinyl)-6-(3-pyridinyl)thieno[2,3-b]pyridine-2-carboxamide]
Second: CC#CCN(C(=O)c1sc2nc(-c3cccnc3)ccc2c1N)c1ccccc1 [Example 9, 3-amino-N-(2-butynyl)-N-phenyl-6-(3-pyridinyl)thieno[2,3-b]pyridine-2-carboxamide]
The “Activity value (score)” value of the first is higher: 2 for the first, 1 for the second.

`C=CCN(C(=O)c1sc2nc(-c3ccncc3)ccc2c1N)c1cc(F)ccc1F` [Example 8, N-allyl-3-amino-N-(2,5-difluorophenyl)-6-(4-pyridinyl)thieno[2,3-b]pyridine-2-carboxamide] was tested, and the “Activity value (score)” value was 1.

Same assay, conditions: assay concentration 10 μM; HEK293A cells overexpressing Flag-SOD1 G93A and Derlin-1-HA

`C/C=C/CN(C(=O)c1sc2nc(-c3cccnc3)ccc2c1N)c1ccccc1` [Example 5, 3-amino-N-(trans-2-butenyl)-N-phenyl-6-(3-pyridinyl)thieno[2,3-b]pyridine-2-carboxamide] was tested, and the “Activity value (score)” value was 2.

Same assay, conditions: assay concentration 20 μM; HEK293A cells overexpressing Flag-SOD1 G93A and Derlin-1-HA

`C#CCCCOCC=CCN(C(=O)c1sc2nc(-c3cccnc3)ccc2c1N)c1ccccc1` (stereo in doubt) [Example 38, 3-amino-N-((E)-4-(pent-4-ynyloxy)but-2-enyl)-N-phenyl-6-(3-pyridinyl)thieno[2,3-b]pyridine-2-carboxamide] and `C#CCN(C(=O)c1sc2nc(-c3cccnc3)ccc2c1N)c1ccccc1` [Example 2, N-propargyl-3-amino-N-phenyl-6-(3-pyridinyl)thieno[2,3-b]pyridine-2-carboxamide] are the same in “Activity value (score)” value: 2 for the first, 2 for the second.

`Nc1c(C(=O)N2CCCc3ccccc32)sc2nc(-c3cccnc3)ccc12` [Example 3, (3-Amino-6-(3-pyridinyl)thieno[2,3-b]2-pyridinyl)(3,4-dihydro-1(2H)-quinolyl)methanone] and `Nc1c(C(=O)N2CCCCc3ccccc32)sc2nc(-c3cccnc3)ccc12` [Example 14, [3-amino-6-(3-pyridinyl)thieno[2,3-b]2-pyridinyl](2,3,4,5-tetrahydro-1H-benzo[b]azepin-1-yl)methanone] are the same in “Activity value (score)” value: 2 for the first, 2 for the second.

`CCCN(C(=O)c1sc2nc(-c3cccnc3)ccc2c1N)c1ccccc1` [Example 10, N-n-propyl-3-amino-N-phenyl-6-(3-pyridinyl)thieno[2,3-b]pyridine-2-carboxamide] and `CC(C)=CCN(C(=O)c1sc2nc(-c3cccnc3)ccc2c1N)c1ccccc1` [Example 13, N-(3-methyl-2-butenyl)-3-amino-N-phenyl-6-(3-pyridinyl)thieno[2,3-b]pyridine-2-carboxamide] are the same in “Activity value (score)” value: 2 for the first, 2 for the second.

`CCCN(C(=O)c1sc2nc(-c3cccnc3)ccc2c1N)c1ccc(F)c(F)c1F` [Example 11, N-n-propyl-3-amino-N-(2,3,4-trifluorophenyl)-6-(3-pyridinyl)thieno[2,3-b]pyridine-2-carboxamide] and `C=CCN(C(=O)c1sc2nc(-c3cccnc3)ccc2c1N)c1cccc(F)c1F` [Example 16, N-allyl-3-amino-N-(2,3-difluorophenyl)-6-(3-pyridinyl)thieno[2,3-b]pyridine-2-carboxamide] are the same in “Activity value (score)” value: 2 for the first, 2 for the second.

`C=CCN(C(=O)c1sc2nc(-c3cccnc3)ccc2c1N)c1ccc(I)cc1` [Example 12, N-allyl-3-amino-N-(4-iodophenyl)-6-(3-pyridinyl)thieno[2,3-b]pyridine-2-carboxamide] and `C=CCN(C(=O)c1sc2nc(-c3cccnc3)ccc2c1N)c1ccc(F)cc1F` [Example 15, N-allyl-3-amino-N-(2,4-difluorophenyl)-6-(3-pyridinyl)thieno[2,3-b]pyridine-2-carboxamide] are the same in “Activity value (score)” value: 2 for the first, 2 for the second.

`C=CCN(C(=O)c1sc2nc(-c3cccnc3)ccc2c1N)c1cc(F)ccc1F` [Example 17, N-allyl-3-amino-N-(2,5-difluorophenyl)-6-(3-pyridinyl)thieno[2,3-b]pyridine-2-carboxamide] and `C=CCN(C(=O)c1sc2nc(-c3cccnc3)ccc2c1N)c1cc(F)ccc1C` [Example 18, N-allyl-3-amino-N-(5-fluoro-2-methylphenyl)-6-(3-pyridinyl)thieno[2,3-b]pyridine-2-carboxamide] are the same in “Activity value (score)” value: 2 for the first, 2 for the second.

`C=CCN(C(=O)c1sc2nc(-c3ccncc3)ccc2c1N)c1ccc(F)c(F)c1` [Example 19, N-allyl-3-amino-N-(3,4-difluorophenyl)-6-(4-pyridinyl)thieno[2,3-b]pyridine-2-carboxamide] and `C=CCN(C(=O)c1sc2nc(-c3ccncc3)ccc2c1N)c1cc(F)cc(F)c1` [Example 22, N-allyl-3-amino-N-(3,5-difluorophenyl)-6-(4-pyridinyl)thieno[2,3-b]pyridine-2-carboxamide] are the same in “Activity value (score)” value: 2 for the first, 2 for the second.

`C=CCN(C(=O)c1sc2nc(-c3cccnc3)ccc2c1N)c1cc(F)cc(F)c1` [Example 20, N-allyl-3-amino-N-(3,5-difluorophenyl)-6-(3-pyridinyl)thieno[2,3-b]pyridine-2-carboxamide] and `C=CCN(C(=O)c1sc2nc(-c3cccnc3)ccc2c1N)c1cccc(S(F)(F)(F)(F)F)c1` [Example 21, N-allyl-3-amino-N-(3-(pentafluoro-λ^6-sulfanyl)phenyl)-6-(3-pyridinyl)thieno[2,3-b]pyridine-2-carboxamide] are the same in “Activity value (score)” value: 2 for the first, 2 for the second.

First: C=CCN(C(=O)c1sc2nc(-c3ccncc3)ccc2c1N)c1cccc(S(F)(F)(F)(F)F)c1 [Example 23, N-allyl-3-amino-N-(3-(pentafluoro-λ^6-sulfanyl)phenyl)-6-(4-pyridinyl)thieno[2,3-b]pyridine-2-carboxamide]
Second: Nc1c(C(=O)Nc2cccc3ccccc23)sc2nc(-c3cccnc3)ccc12 [Example 24]
The “Activity value (score)” value of the first is higher: 2 for the first, 1 for the second.

In the case of `Cc1cccc(C)c1NC(=O)c1sc2nc(-c3cccnc3)ccc2c1N` [Example 25, 3-amino-N-(2,6-dimethylphenyl)-6-(3-pyridinyl)thieno[2,3-b]pyridine-2-carboxamide], the “Activity value (score)” value is reported as 1.
